Laboratory results: the NIST ThermoML archive (doi:10.1016/j.fluid.2015.07.030)

Assay: refractive index (other wavelength) (dimensionless); xn = mol fraction of the nth substance listed
Conditions: 95.99 kPa, Liquid, Standard Abbe refractometry

OCCOCCOCCO [triethylene glycol] + O
refractive index
Conditions	Wavelength=404.7 nm	Wavelength=435.8 nm	Wavelength=486.1 nm	Wavelength=546.1 nm	Wavelength=587.6 nm	Wavelength=589.3 nm	Wavelength=632.8 nm	Wavelength=644 nm	Wavelength=706.5 nm
303.15 K, x2 = 0	–	–	–	–	–	1.45267	1.4511	1.45075	1.44903
303.15 K, x2 = 0.1056	–	–	–	–	–	1.45131	1.44977	1.44941	1.44768
303.15 K, x2 = 0.2069	–	–	–	–	–	1.44969	1.44815	1.4478	1.44609
303.15 K, x2 = 0.3104	–	–	–	–	–	1.44605	1.44452	1.44417	1.44246
303.15 K, x2 = 0.4844	–	–	–	–	–	1.44261	1.44109	1.44075	1.43906
303.15 K, x2 = 0.5016	–	–	–	–	–	1.44163	1.44012	1.43978	1.4381
303.15 K, x2 = 0.5952	–	–	–	–	–	1.43507	1.43356	1.43321	1.43153
303.15 K, x2 = 0.6016	–	–	–	–	–	1.43519	1.43369	1.43334	1.43165
303.15 K, x2 = 0.6788	–	–	–	–	–	1.42871	1.42724	1.42689	1.4252
303.15 K, x2 = 0.7835	–	–	–	–	–	1.41945	1.41799	1.41765	1.41598
303.15 K, x2 = 0.8184	–	–	–	–	–	1.41428	1.41284	1.41249	1.41081
303.15 K, x2 = 0.8473	–	–	–	–	1.40803	1.40797	1.40655	1.4062	1.40454
303.15 K, x2 = 0.8719	–	–	–	–	1.40124	1.40118	1.39977	1.39943	1.39777
303.15 K, x2 = 0.8926	–	–	–	–	1.39369	1.39363	1.39224	1.39191	1.39029
303.15 K, x2 = 0.9106	–	–	–	–	1.38817	1.38811	1.38673	1.38639	1.38476
303.15 K, x2 = 0.9254	–	–	–	–	1.37798	1.37792	1.37655	1.37622	1.37461
303.15 K, x2 = 0.9303	–	–	–	–	1.37934	1.37928	1.37792	1.37759	1.37597
303.15 K, x2 = 0.9391	–	–	–	–	1.37533	1.37531	1.37393	1.37361	1.37201
303.15 K, x2 = 0.951	–	–	–	–	1.36879	1.36873	1.36739	1.36708	1.36548
303.15 K, x2 = 0.9599	–	–	–	–	1.36294	1.36288	1.36155	1.36123	1.35966
303.15 K, x2 = 0.9708	–	–	–	–	1.35503	1.35497	1.35367	1.35335	1.35178
303.15 K, x2 = 0.979	–	–	–	–	1.35005	1.34999	1.34869	1.34838	1.34683
303.15 K, x2 = 0.9867	–	–	–	–	1.34407	1.34402	1.34275	1.34244	1.34092
303.15 K, x2 = 0.9936	–	–	–	–	1.33792	1.33786	1.3366	1.3363	1.33481
308.15 K, x2 = 0	1.46397	1.46043	1.45629	1.45285	1.45106	1.45099	1.44945	–	–
308.15 K, x2 = 0.1056	1.46262	1.4591	1.45496	1.45153	1.44974	1.44967	1.44814	–	–
308.15 K, x2 = 0.2069	1.46101	1.4575	1.45334	1.44996	1.44816	1.44809	1.44655	–	–
308.15 K, x2 = 0.3104	1.45847	1.45498	1.45085	1.44745	1.44566	1.44561	1.44407	–	–
308.15 K, x2 = 0.4844	1.45365	1.45024	1.44616	1.44282	1.44105	1.44098	1.43947	–	–
308.15 K, x2 = 0.5016	1.45268	1.44927	1.4452	1.44188	1.44011	1.44065	1.43853	–	–
308.15 K, x2 = 0.5952	1.44587	1.44251	1.43858	1.43529	1.43357	1.4335	1.43202	–	–
308.15 K, x2 = 0.6016	1.44608	1.44288	1.43766	1.43458	1.43283	1.43274	1.43225	–	–
308.15 K, x2 = 0.6788	1.43943	1.43608	1.43224	1.42901	1.42731	1.42725	1.42577	–	–
308.15 K, x2 = 0.7835	1.43059	1.42735	1.42362	1.42052	1.41887	1.4188	1.41735	–	–
308.15 K, x2 = 0.8184	1.4247	1.42147	1.41778	1.41468	1.41303	1.41297	1.41153	–	–
308.15 K, x2 = 0.8473	1.41822	1.41506	1.41139	1.40833	1.40675	1.40666	1.40524	–	–
308.15 K, x2 = 0.8719	1.41127	1.40816	1.40459	1.40157	1.39999	1.39993	1.39853	–	–
308.15 K, x2 = 0.8926	1.40352	1.40046	1.39696	1.39401	1.39245	1.39239	1.39102	–	–
308.15 K, x2 = 0.9106	1.39814	1.3951	1.39162	1.38868	1.38711	1.38705	1.38567	–	–
308.15 K, x2 = 0.9254	1.38807	1.38515	1.38181	1.37898	1.37744	1.37739	1.37602	–	–
308.15 K, x2 = 0.9303	1.38901	1.38605	1.38268	1.37985	1.37833	1.37828	1.37692	–	–
308.15 K, x2 = 0.9391	1.38539	1.38243	1.37908	1.37624	1.37471	1.37465	–	–	–
308.15 K, x2 = 0.951	1.37872	1.37585	1.37256	1.36977	1.36826	1.36821	–	–	–
308.15 K, x2 = 0.9599	1.37231	1.3695	1.36628	1.36351	1.36202	1.36197	–	–	–
308.15 K, x2 = 0.9708	1.36448	1.36175	1.35858	1.35587	1.35442	1.35436	–	–	–
308.15 K, x2 = 0.979	1.35959	1.3569	1.35382	1.35111	1.34968	1.34963	–	–	–
308.15 K, x2 = 0.9867	1.35319	1.35054	1.34746	1.34481	1.34338	1.34332	–	–	–
308.15 K, x2 = 0.9936	1.34702	1.34444	1.34138	1.33876	1.33735	1.3373	–	–	–
